For this assay, the system named is ME-1 and MOLM-14 cells. The assay can be described thus: CPX-351 uptake after quizartinib pretreatment. Type of assay: cell-based. The protocol:
Uptake of CPX-351 was measured by daunorubicin fluorescence as determined by flow cytometry normalized to untreated control. The x-axis in the graphs depicts the uptake of CPX-351 in standard units of fluorescence and the y-axis represents the normalized cell counts. […] It is clear from FIGS. 9A and 9B that as the pretreatment time is extended, the ability of some of the cells to take up CPX-351 is diminished. The results in FIGS. 9C and 9D are composites of the various timepoints up to 24 hours.

With `CC(C)(C)c1cc(NC(=O)Nc2ccc(-c3cn4c(n3)sc3cc(OCCN5CCOCC5)ccc34)cc2)no1` [quizartinib], the “ability of cells to take up CPX-351 as quizartinib pretreatment time is extended” value (10 nM quizartinib for 0, 2, 8, 16 and 24 hours, then CPX-351 for 2 hours) was “diminished”. In addition, the “total population of cells exhibiting decreased daunorubicin fluorescence” value (pretreatment with quizartinib for 16 hours) is reported as “approximately 50%”.

For the origin of these results see US10927418B2, “Assays and methods for selecting a treatment regimen for a subject with leukemia” (CELATOR PHARMACEUTICALS, INC., priority 2015, dated 2021).
